Results taken from patent publication US12371454B2, “Cyclic peptide compound having Kras inhibitory action” (priority 2019, dated 2025).
Starred links: 1 amine or outer side, 2 acyl side, 3 side chain; linkers in the order of their positions; H or OH if unused. Positions of bridges follow the written chain, without caps; N, C: chain ends. Non-standard residues stand in square brackets, D forms with d. Residues, ends and D or L forms follow the SMILES beside them. *: point of attachment. hPhe(3,5-F2-4-CF3) = N[C@@H](CCc1cc(F)c(C(F)(F)F)c(F)c1)C(=O)O; hPhe(3-Cl-4-CF3) = N[C@@H](CCc1ccc(C(F)(F)F)c(Cl)c1)C(=O)O; NMeAla(4-thiazolyl) = CN[C@@H](Cc1cscn1)C(=O)O; 3Oxa8azabicyclo(3.2.1)octane = C1CC2COCC1N2*; NMeAbu(4,4,4-F3) = CN[C@@H](CC(F)(F)F)C(=O)O; NMePhe(4-Me) = CN[C@@H](Cc1ccc(C)cc1)C(=O)O; NMeNle(6-CHF2) = CN[C@@H](CCCCC(F)F)C(=O)O; NMePhe(4-F) = CN[C@@H](Cc1ccc(F)cc1)C(=O)O; NMedβ3hAla = C[C@H](CC(=O)[*:2])N(C)[*:1]; NMeAla(cPent) = CN[C@@H](CC1CCCC1)C(=O)O; NMeGly(cPent) = CN[C@H](C(=O)O)C1CCCC1; NMeGly(cBu) = CN[C@H](C(=O)O)C1CCC1; NMeCha = CN[C@@H](CC1CCCCC1)C(=O)O; NMeChg = CN[C@H](C(=O)O)C1CCCCC1; NMeI = CC[C@H](C)[C@H](NC)C(=O)O; Gly(cBu) = N[C@H](C(=O)O)C1CCC1; NMeD = CN[C@@H](CC(=O)O)C(=O)O; NMeL = CN[C@@H](CC(C)C)C(=O)O; NMeV = CN[C@H](C(=O)O)C(C)C; d(β3hA) = C[C@@H](N)CC(=O)O; Azetidin(1-yl) = C1CN(*)C1; Morpholide = C1CN(*)CCO1; NMeA = CN[C@@H](C)C(=O)O; Piperidide = C1CCN(*)CC1; Pyrrolidide = C1CCN(*)C1; Ac5c = NC1(C(=O)O)CCCC1; Aze = O=C(O)[C@@H]1CCN1; Aib = CC(C)(N)C(=O)O; NEtG = CCNCC(=O)O; Sar = CNCC(=O)O

Tests used:
[1] = test system: Human pancreatic cancer cell line AsPC-1; test: Measurement of AsPC-1 cell growth inhibition (AsPC-1 CGI); assay type: cell-based; conditions: 96 h
Method in brief: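 AsPC-1 cells in 15% FBS RPMI-1640 were exposed to test compound for 96 hours at 37° C, with CellTiter-Glo as endpoint.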

[2] = target: T1, Kras and SOS1 (biotin-tagged human Kras loaded with GDP, His-tagged human SOS1) (Homo sapiens, UniProt P01116, G12D); test: Protein-protein interaction inhibition between Kras and SOS1 (KrasGl2D-SOS PPI) using AlphaScreen; assay type: binding; conditions: AlphaScreen; biotin-tagged human Kras loaded with GDP, His-tagged human SOS1; read-out: KRAS G12D-SOS PPI IC50
T1 construct: made in house; host or cells: E. coli (stated for Kras only)
Method in brief: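 Kras was produced in E. coli, purified, then loaded with GDP. It was paired via streptavidin acceptor beads with His-SOS1 held on nickel donor beads, and proximity signal at 520-620 nm was read after 680 nm illumination.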

T1 sequence (P01116 1-188 isoform P01116-2 G12D): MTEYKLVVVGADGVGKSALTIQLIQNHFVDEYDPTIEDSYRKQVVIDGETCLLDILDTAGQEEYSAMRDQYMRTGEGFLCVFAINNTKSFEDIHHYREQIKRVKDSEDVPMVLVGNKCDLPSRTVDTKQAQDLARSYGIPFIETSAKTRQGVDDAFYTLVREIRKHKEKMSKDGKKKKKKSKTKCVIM

| SMILES | IC50 [1] [nM] | IC50 [2] [nM] |
| --- | --- | --- |
| CC[C@H](C)[C@@H]1NC(=O)[C@H](C2CCC2)N(C)C(=O)C[C@@H](C(=O)N2CCCC2)N(C)C(=O)[C@H](C2CCCCC2)N(C)C(=O)C2(CCCC2)NC(=O)[C@@H]2CCCN2C(=O)[C@H](CCc2ccc(C(F)(F)F)c(Cl)c2)NC(=O)CN(C)C(=O)[C@H](Cc2ccc(C)cc2)N(C)C(=O)CN(C)C(=O)CN(C)C1=O [Compound 339] ([NMeGly(cBu)]I[Sar][Sar][NMePhe(4-Me)][Sar][hPhe(3-Cl-4-CF3)]P[Ac5c][NMeChg][NMeD]-Pyrrolidide; lactam N-11) | 20 to 50 | 0.38 |
| CC[C@H](C)[C@@H]1NC(=O)[C@H](CC(C)C)N(C)C(=O)C[C@@H](C(=O)N(C)C)N(C)C(=O)[C@H]([C@@H](C)CC)N(C)C(=O)C2(CCCC2)NC(=O)[C@H](Cc2ccc(C)cc2)N(C)C(=O)[C@H](CCc2ccc(C(F)(F)F)c(Cl)c2)NC(=O)CN(C)C(=O)[C@H](Cc2ccc(C)cc2)N(C)C(=O)[C@@H]2CCN2C(=O)[C@H](C)N(C)C1=O [Compound 340] ([NMeL]I[NMeA][Aze][NMePhe(4-Me)][Sar][hPhe(3-Cl-4-CF3)][NMePhe(4-Me)][Ac5c][NMeI][NMeD]-NMe2; lactam N-11) | 20 to 50 | 4.7 |
| CC[C@H](C)[C@@H]1NC(=O)[C@H](C2CCC2)N(C)C(=O)C[C@@H](C(=O)N2C3CCC2COC3)N(C)C(=O)[C@H](C2CCCCC2)N(C)C(=O)C2(CCCC2)NC(=O)[C@@H]2CCCN2C(=O)[C@H](CCc2ccc(C(F)(F)F)c(Cl)c2)NC(=O)CN(C)C(=O)[C@H](Cc2ccc(C)cc2)N(C)C(=O)CN(C)C(=O)CN(C)C1=O [Compound 353] ([NMeGly(cBu)]I[Sar][Sar][NMePhe(4-Me)][Sar][hPhe(3-Cl-4-CF3)]P[Ac5c][NMeChg][NMeD]-{3Oxa8azabicyclo(3.2.1)octane}; lactam N-11) | 50 to 100 | 0.69 |
| CC[C@H](C)[C@@H]1NC(=O)[C@H](CC(C)C)N(C)C(=O)C[C@@H](C)NC(=O)[C@H](C2CCCC2)N(C)C(=O)C(C)(C)NC(=O)[C@@H]2CCCN2C(=O)[C@H](CCc2ccc(C(F)(F)F)c(Cl)c2)NC(=O)CN(C)C(=O)[C@H](Cc2ccc(C)cc2)N(C)C(=O)[C@@H]2CCN2C(=O)[C@H](C)N(C)C1=O [Compound 354] (cyclo([Aib][NMeGly(cPent)][d(β3hA)][NMeL]I[NMeA][Aze][NMePhe(4-Me)][Sar][hPhe(3-Cl-4-CF3)]P)) | 100 to 500 | 1.6 |
| CC[C@H](C)[C@@H]1NC(=O)[C@H](C)N(C)C(=O)C[C@@H](C(=O)N2CCCCC2)N(C)C(=O)[C@H](C(C)C)N(C)C(=O)C2(CCCC2)NC(=O)[C@@H]2CCCN2C(=O)[C@H](CCc2ccc(C(F)(F)F)c(Cl)c2)NC(=O)CN(C)C(=O)[C@H](CC2CCCCC2)N(C)C(=O)CN(C)C(=O)CN(C)C1=O [Compound 360] ([NMeA]I[Sar][Sar][NMeCha][Sar][hPhe(3-Cl-4-CF3)]P[Ac5c][NMeV][NMeD]-Piperidide; lactam N-11) | 100 to 500 | 2.8 |
| CC[C@H](C)[C@@H]1NC(=O)[C@H](CC(C)C)N(C)C(=O)C[C@@H](C)NC(=O)[C@H](CC(C)C)N(C)C(=O)C2(CCCC2)NC(=O)[C@@H]2CCCN2C(=O)[C@H](CCc2cc(F)c(C(F)(F)F)c(F)c2)NC(=O)CN(C)C(=O)[C@H](CC2CCCCC2)N(C)C(=O)CN(C)C(=O)CN(C)C1=O [Compound 364] (cyclo([Ac5c][NMeL][d(β3hA)][NMeL]I[Sar][Sar][NMeCha][Sar][hPhe(3,5-F2-4-CF3)]P)) | 100 to 500 | 9.7 |
| CC[C@H](C)[C@@H]1NC(=O)[C@H](CC(F)(F)F)N(C)C(=O)C[C@@H](C(=O)N2CCOCC2)N(C)C(=O)[C@H](C2CCCCC2)N(C)C(=O)C2(CCCC2)NC(=O)[C@@H]2CCCN2C(=O)[C@H](CCc2ccc(C(F)(F)F)c(Cl)c2)NC(=O)CN(C)C(=O)[C@H](CC2CCCC2)N(C)C(=O)CN(C)C(=O)CN(C)C1=O [Compound 367] ([NMeAbu(4,4,4-F3)]I[Sar][Sar][NMeAla(cPent)][Sar][hPhe(3-Cl-4-CF3)]P[Ac5c][NMeChg][NMeD]-Morpholide; lactam N-11) | 100 to 500 | 0.6 |
| CC[C@H](C)[C@@H]1NC(=O)[C@H](CC(C)C)N(C)C(=O)C[C@@H](C(=O)N(C)C)N(C)C(=O)[C@H](C2CCCC2)N(C)C(=O)C2(CCCC2)NC(=O)[C@H](Cc2cscn2)N(C)C(=O)[C@H](CCc2ccc(C(F)(F)F)c(Cl)c2)NC(=O)CN(C)C(=O)[C@H](CC2CCCCC2)N(C)C(=O)[C@@H]2CCN2C(=O)[C@H](C)N(C)C1=O [Compound 384] ([NMeL]I[NMeA][Aze][NMeCha][Sar][hPhe(3-Cl-4-CF3)][NMeAla(4-thiazolyl)][Ac5c][NMeGly(cPent)][NMeD]-NMe2; lactam N-11) | 100 to 500 | 1 |
| CC[C@H](C)[C@@H]1NC(=O)[C@H](CC(C)C)N(C)C(=O)C[C@@H](C(=O)N(C)C)N(C)C(=O)[C@H]([C@@H](C)CC)N(C)C(=O)C2(CCCC2)NC(=O)[C@H](Cc2ccc(F)cc2)N(C)C(=O)[C@H](CCc2ccc(C(F)(F)F)c(Cl)c2)NC(=O)CN(C)C(=O)[C@H](Cc2ccc(C)cc2)N(C)C(=O)[C@@H]2CCN2C(=O)[C@H](C)N(C)C1=O [Compound 385] ([NMeL]I[NMeA][Aze][NMePhe(4-Me)][Sar][hPhe(3-Cl-4-CF3)][NMePhe(4-F)][Ac5c][NMeI][NMeD]-NMe2; lactam N-11) | 50 to 100 | 4.7 |
| CC[C@H](C)[C@@H]1NC(=O)[C@H](C2CCCC2)N(C)C(=O)C[C@@H](C(=O)N2CCCCC2)N(C)C(=O)[C@H](C(C)C)N(C)C(=O)C2(CCCC2)NC(=O)[C@@H]2CCCN2C(=O)[C@H](CCc2ccc(C(F)(F)F)c(Cl)c2)NC(=O)CN(C)C(=O)[C@H](CC2CCCCC2)N(C)C(=O)CN(C)C(=O)CN(C)C1=O [Compound 393] ([NMeGly(cPent)]I[Sar][Sar][NMeCha][Sar][hPhe(3-Cl-4-CF3)]P[Ac5c][NMeV][NMeD]-Piperidide; lactam N-11) | 100 to 500 | 5.3 |
| CC[C@H](C)[C@@H]1NC(=O)[C@H](CC(C)C)N(C)C(=O)C[C@@H](C)NC(=O)[C@H](C(C)C)N(C)C(=O)C2(CCCC2)NC(=O)[C@@H]2CCCN2C(=O)[C@H](CCc2ccc(C(F)(F)F)c(Cl)c2)NC(=O)CN(CC)C(=O)[C@H](CC2CCCCC2)N(C)C(=O)CN(C)C(=O)CN(C)C1=O [Compound 395] (cyclo([Ac5c][NMeV][d(β3hA)][NMeL]I[Sar][Sar][NMeCha][NEtG][hPhe(3-Cl-4-CF3)]P)) | 100 to 500 | 47 |
| CC(C)C[C@H]1C(=O)N[C@@H](C2CCC2)C(=O)N(C)CC(=O)N(C)CC(=O)N(C)[C@@H](CC2CCCCC2)C(=O)N(C)CC(=O)N[C@@H](CCc2ccc(C(F)(F)F)c(Cl)c2)C(=O)N2CCC[C@H]2C(=O)NC2(CCCC2)C(=O)N(C)[C@@H](C2CCCCC2)C(=O)N(C)[C@H](C(=O)N2CCCCC2)CC(=O)N1C [Compound 411] ([NMeL][Gly(cBu)][Sar][Sar][NMeCha][Sar][hPhe(3-Cl-4-CF3)]P[Ac5c][NMeChg][NMeD]-Piperidide; lactam N-11) | 50 to 100 | 0.62 |
| CC[C@H](C)[C@@H]1NC(=O)[C@H](CC(C)C)N(C)C(=O)C[C@@H](C)N(C)C(=O)[C@H](C2CCCC2)N(C)C(=O)C2(CCCC2)NC(=O)[C@@H]2CCCN2C(=O)[C@H](CCc2ccc(C(F)(F)F)c(Cl)c2)NC(=O)CN(C)C(=O)[C@H](CC2CCCCC2)N(C)C(=O)CN(C)C(=O)CN(C)C1=O [Compound 420] (cyclo([Ac5c][NMeGly(cPent)][NMedβ3hAla][NMeL]I[Sar][Sar][NMeCha][Sar][hPhe(3-Cl-4-CF3)]P)) | 50 to 100 | 3.4 |
| CC[C@H](C)[C@@H]1NC(=O)[C@H](CCCCC(F)F)N(C)C(=O)C[C@@H](C(=O)N2CCCCC2)N(C)C(=O)[C@H](C2CCCCC2)N(C)C(=O)C2(CCCC2)NC(=O)[C@@H]2CCCN2C(=O)[C@H](CCc2ccc(C(F)(F)F)c(Cl)c2)NC(=O)CN(C)C(=O)[C@H](CC2CCCCC2)N(C)C(=O)CN(C)C(=O)CN(C)C1=O [Compound 425] ([NMeNle(6-CHF2)]I[Sar][Sar][NMeCha][Sar][hPhe(3-Cl-4-CF3)]P[Ac5c][NMeChg][NMeD]-Piperidide; lactam N-11) | 50 to 100 | 0.57 |
| CC[C@H](C)[C@@H]1NC(=O)[C@H](C2CCC2)N(C)C(=O)C[C@@H](C(=O)N2CCOCC2)N(C)C(=O)[C@H](C2CCCCC2)N(C)C(=O)C2(CCCC2)NC(=O)[C@@H]2CCCN2C(=O)[C@H](CCc2ccc(C(F)(F)F)c(Cl)c2)NC(=O)CN(C)C(=O)[C@H](CC2CCCC2)N(C)C(=O)CN(C)C(=O)CN(C)C1=O [Compound 434] ([NMeGly(cBu)]I[Sar][Sar][NMeAla(cPent)][Sar][hPhe(3-Cl-4-CF3)]P[Ac5c][NMeChg][NMeD]-Morpholide; lactam N-11) | 50 to 100 | 0.52 |
| CC[C@H](C)[C@@H]1NC(=O)[C@H](CC(C)C)N(C)C(=O)C[C@@H](C(=O)N2CCC2)N(C)C(=O)[C@H](C2CCCCC2)N(C)C(=O)C2(CCCC2)NC(=O)[C@@H]2CCCN2C(=O)[C@H](CCc2ccc(C(F)(F)F)c(Cl)c2)NC(=O)CN(C)C(=O)[C@H](CC2CCCCC2)N(C)C(=O)CN(C)C(=O)CN(C)C1=O [Compound 437] ([NMeL]I[Sar][Sar][NMeCha][Sar][hPhe(3-Cl-4-CF3)]P[Ac5c][NMeChg][NMeD]-{Azetidin(1-yl)}; lactam N-11) | 50 to 100 | 0.47 |
